Data as given in patent US20260234159A1, “SMALL MOLECULE TREATMENT OF FATTY LIVER DISEASE AND HCC” (SCANDIEDGE THERAPEUTICS AB, priority 2023, published 2026).

Tests used:
Format in all cases: cell-based, human
[1] = MTT cell viability after one week steatosis (ranking of target molecules); conditions: human, HepG2 cells (wild type); HepG2, 10 μM, one week steatosis induce media, MTT; Control 100.00
Summary of the method: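 HepG2 cells, 60,000 per well, kept one week in steatosis medium (high-glucose DMEM, 10 μg/ml insulin, 10 μM T0901317) with 10 μM compound. Medium changed at day 0, 3 and 5. Viability measured by MTT.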

HepG2 cells [2] = assay: FACs analysis with PI staining (cell cycle); conditions: for Cell population G0/G1 / Cell population G2/M / Cell population S: PI FACs, 10 μM, 2 days; for cells in the G2/M phase: histogram plots
Procedure: 400,000 HepG2 cells were seeded in a 6-well plated and treated with 10 μM of the compounds for 2 days. Cells were fixed with 70% ethanol and stained with 50 μg/ml PI. Prepared cells were analysed using BD FACS Canto II Flow Cytometry system at PE-A channel 10,000 cells per group. The data was histogram plotted with BD FACSDiva 9.0.

HepG2 cells [3] = assay: Invasion assay (transwell); conditions: Homo sapiens, HepG2, 24 hr, read-out: invasiveness reduced by
Procedure: The effects of the treatment with the compounds on the invasion ability of HepG2 and Huh7 cells were determined by 8 μm pores transwell chamber (Corning™ 3464, USA).
Transwell membrane was coated with 100 μl collagen (Sigma C3867, USA) diluted with PBS to a concentration of 1 mg/ml. After overnight incubation at 4° C., the collagen solution was discarded and the membrane was washed with PBS. 100,000 cells in 200 μl serum free media together with the tested compounds were added into the upper well and 600 μl of 10% FBS supplemented growth media was added to the lower well as an invasive attractant in a 24-well plate. Cells were incubated at 37° C. in a CO2 incubator for one day. The cells were fixed with 3.7% formaldehyde for 30 minutes at room temperature and washed with PBS twice. The cells were stained with 1% crystal violet in PBS for 20 minutes and residual cells in inner membrane were swabbed gently with a cotton swab. Invaded cells located at the outer membrane were imaged by ZOE Fluorescent Cell Imager (Bio-Rad, USA) and counted by image. For wound healing assay, 100,000 cells per well were seeded into 24-well plates and grown until 95-100% confluent. Linear wound was created by using a 200 μl pipette tip. Image was recorded at the time point of day 0 until control group wound closure with 1 μM of compounds by ZOE Fluorescent Cell Imager (Bio-Rad, USA). Wound areas were measured using ImageJ software.

JNK1/2/3 = assay: Western blot, JNK1/2/3 P54 and p46 isoforms; conditions: 10 μM, 2 days
Procedure: HepG2 cells were seeded into a 6-well plate at 400,000 cells per well. After treatment with 10 μM of JNK-IN-5A and its derivatives for two days, lysates were harvested with CelLytic M (C2978, Sigma-Aldrich). […] SDS PAGE were performed using Mini-PROTEAN® TGX™ Precast Gels (Bio-Rad) and transferred using Trans-Blot® Turbo™ Transfer System (Bio-Rad). […] ImageQuantTMLAS 500 (29-0050-63, GE) was used to detect protein bands.

HepG2 cells [4] = assay: MTT cell viability / IC50 in growth media; conditions: for IC50: Homo sapiens, 48 h, HepG2, treatment for 2 days; for cell viability of HepG2 cells: especially in cancerous media
Procedure: (§1) The cytotoxic effects of the synthesized drugs on the HepG2 cells were tested by MTT (Thiazolyl Blue Tetrazolium Bromide) method. HepG2 cells were seeded 2×10^4 cells per well in 96-well plate in 200 μL growth media. […] After the incubation period, 5 mg/ml MTT (M2128, Sigma-Aldrich) solution in PBS (10 μL) was added to each well. After 1 hr, the MTT solution and all media were removed from the wells. 100 μl of DMSO was added and mixed to dissolve the formazan crystals. Cell viability was analysed by measuring the absorbance of the dissolved formazan in a microplate reader at a wavelength of 570 nm with microplate reader (Hidex Sense Beta Plus).
(§2) HepG2 cells were maintained and used with RPMI 1640 (R2405, Sigma-Aldrich) supplemented with 10% fetal bovine serum (F7524, Sigma-Aldrich), 1% P/S (P4333, Sigma-Aldrich). 20,000 cells per well of HepG2 cells were seeded into a 96-well plate and triplicated for MTT assay and LDH assay. Cell viability was measured by MTT assay (M6494, ThermoFisher) and cytotoxicity was measured by LDH assay kit (ab65393, abcam) by following manufacturer's instructions. Optical density (O.D) was numerated using a microplate reader (Hidex Sense Meta Plus).

[5] = MTT cell viability / IC50 in growth media; conditions: human, HepG2 cells, 10 μM; for viability at 2 days, 10 µM: treatment for 2 days; for viability at 4 day, 10 µM: day 4
Procedure: as §1, §2

Caspase 3 = assay: Western blot, active caspase 3; conditions: 10 μM, 2 days
Procedure: HepG2 cells were seeded into a 6-well plate at 400,000 cells per well. After treatment with 10 μM of JNK-IN-5A and its derivatives for two days, lysates were harvested with CelLytic M (C2978, Sigma-Aldrich). 20 μg lysate was prepared with 2× Laemmli Sample Buffer (1610737, Biorad). SDS PAGE were performed using Mini-PROTEAN® TGX™ Precast Gels (Bio-Rad) and transferred using Trans-Blot® Turbo™ Transfer System (Bio-Rad). Primary antibody, PARP (95425, Cell signalling), Caspase 3 (ab32042, abcam), Bcl-2 (ab182858), STAT1 (HPA000982, Merk), PKL (06653, Sigma), PKM (4053S, Cell signalling), GAPDH (ab8245, abcam), P53 (ab32389, abcam), p21 (ab109199, abcam), p-S349 p62 (ab211324, abcam), p62 (ab109012, abcam), c-Myc (ab32072, abcam), GPX4 (ab125066, abcam), MMP9 (MA5-32705, Invitrogen), β-actin (ab8227, abcam), and α-tubulin (ab7291, abcam) were blotted overnight and Goat Anti-Rabbit HRP (ab205718) and goat anti-mouse IgG-HRP (sc2005, Santa Cruz Biotechnology, Inc.) were blotted for secondary antibody for one hour. ImageQuantTMLAS 500 (29-0050-63, GE) was used to detect protein bands.

N#Cc1c(NC(=O)c2cccc3ccccc23)sc2c1CCCC2 [JNK-IN-5A, N-(3-cyano-4,5,6,7-tetrahydrobenzo[b]thiophen-2-yl)-1-naphthamide]
viability at 1 week, 10 µM [1]: 56.4% | cell cycle distribution / arrest (HepG2 cells [2]; PI FACS): significant G2/M cell cycle arrest | Cell population G0/G1 (HepG2 cells [2]): 22.7 | Cell population G2/M (HepG2 cells [2]): 67.3 | Cell population S (HepG2 cells [2]): 4.4 | inhibition at 1 µM (HepG2 cells [3]): 24.9% | JNK1/2/3 p46 expression (JNK1/2/3): 0.88 times | dose dependence of cell viability (HepG2 cells [4]; 30 μM to 30 nM): non-dose-dependent, linear reduction in cell viability | IC50 (HepG2 cells [4]; 30 μM to 30 nM): 36.4 µM | viability at 2 days, 10 µM [5]: 59.7%

COc1ccc(C(=O)Nc2sc3c(c2C#N)CCCCC3)cc1OC [PKL-A135, N-(3-cyano-5,6,7,8-tetrahydro-4H-cyclohepta[b]thiophen-2-yl)-3,4-dimethoxy-benzamide]
active caspase 3 levels (Caspase 3): 11.85 times | viability at 1 week, 10 µM [1]: 63.2% | Cell population G0/G1 (HepG2 cells [2]): 5.5 | Cell population G2/M (HepG2 cells [2]): 79.9 | Cell population S (HepG2 cells [2]): 2.0 | cells in the G2/M phase (HepG2 cells [2]): around 89% | inhibition at 1 µM (HepG2 cells [3]): 29.5% | JNK1/2/3 p46 expression (JNK1/2/3): 0.77 times | IC50 (HepG2 cells [4]; 30 μM to 30 nM): 12 µM | cell viability of HepG2 cells (HepG2 cells [4]): significantly low cell viability | viability at 4 day, 10 µM [5]: 15.9% | viability at 2 days, 10 µM [5]: 43.1%

COc1ccccc1NC(=O)N1CCc2c(sc(NC(=O)c3cccc4ccccc34)c2C#N)C1 [PKL-A152]
viability at 1 week, 10 µM [1]: 43.9%

N#Cc1c(NC(=O)c2cccc3ccccc23)sc2c1CCN(C(=O)Nc1ccccc1OC(F)(F)F)C2 [PKL-A159]
viability at 1 week, 10 µM [1]: 2.33% | Cell population G0/G1 (HepG2 cells [2]): 30.5 | Cell population G2/M (HepG2 cells [2]): 62.4 | Cell population S (HepG2 cells [2]): 3.3 | inhibition at 1 µM (HepG2 cells [3]): 77.8% | JNK1/2/3 p46 expression (JNK1/2/3): not significantly altered | IC50 (HepG2 cells [4]; 30 μM to 30 nM): 9.72 µM | viability at 2 days, 10 µM [5]: 61.6%

N#Cc1c(NC(=O)c2cccc3ccccc23)sc2c1CCN(CC(=O)Nc1cccc(Br)c1)C2 [PKL-B171]
active caspase 3 levels (Caspase 3): 14.66 times | viability at 1 week, 10 µM [1]: 22% | Cell population G0/G1 (HepG2 cells [2]): 6.6 | Cell population G2/M (HepG2 cells [2]): 79.1 | Cell population S (HepG2 cells [2]): 3.6 | cells in the G2/M phase (HepG2 cells [2]): around 89% | inhibition at 1 µM (HepG2 cells [3]): 21.4% | JNK1/2/3 p46 expression (JNK1/2/3): 0.87 times | IC50 (HepG2 cells [4]; 30 μM to 30 nM): 21.8 µM | cell viability of HepG2 cells (HepG2 cells [4]): particularly low cell viability | viability at 4 day, 10 µM [5]: 1.1% | viability at 2 days, 10 µM [5]: 67.4%
